According to US5496533A, “Rhenium complexes” (Australian Nuclear Science & Technology Organisation, priority 1992, dated 1996):
Like-named read-outs stand apart in the source and are kept apart here.

Assay: Hygroscopic nature of the HCl salts
Type: physicochemical
Experimental: To a solution of N-methyl-bicyclic compound (2) (10 mmole) in dry THF (100-150ml) was added a large excess of LiAlH4 (30 mmole), and the mixture was refluxed for about 24 hr. The reaction mixture was quenched with […]. NH4 Cl, and filtered. The contents of the funnel were washed with 100ml of CHCl3 twice and the combined filtrate of THF and CHCl3 was evaporated to dryness under reduced pressure. The residue was dissolved in ether (100 ml), and the hydrochloride salt was made by addition of ethanol--HCl and removal of organic solvent under reduced pressure.
To a solution of N-acyl-bicyclic compound (3) (10 mmole) in dry tetrahydrofuran (THF) (100-150ml) was added a large excess of LiAlH4 (50 mmole), and the mixture was refluxed for about 24 hr. The reaction mixture was quenched with satd. NH4 Cl, and filtered. The contents of the funnel were washed with 100 ml of CHCl3 twice and the combined filtrate of THF and CHCl3 was evaporated to dryness under reduced pressure. Water was added (100 ml), and the pH was adjusted to 3.0 with concentrated HCl. The mixture was extracted with diethyl ether (80 ml/extraction) to remove ether soluble impurities. These ether solutions were discarded. The pH was then adjusted to 8.0 and extracted with fresh ether. These ether solutions were dried (Na2 SO4), filtered and evaporated under reduced pressure. […]

## CN(CCNCC(C)(C)S)CC(C)(C)S [N-methyl compound (4), 2,2,9,9-pentamethyl-4-N-methyl-4,7-diaza-1,10-decanedithiol]
  hygroscopic nature of HCl salts: very hygroscopic
Listed as 4(N--Me)
  hygroscopic nature of HCl salts: strong hygroscopic nature
